≈ marks a conversion by molar mass, not a printed value.
Test system: herpes simplex virus type 2 (HSV-2)
Experiment: In vitro HSV-2 bioassay: virucidal plaque assay (HEP-2 cells)
Assay type: cell-based, HSV-2 strain 333
Settings: for MIC: Human alphaherpesvirus 2, 0.5 h, Table 4 run, 30 min at 25° C., upper limit, dilutions to 1:12800, read-out: MIC (lowest concentration producing a 3-log reduction in virus titer); for virucidal activity against HSV-2 in words: in vitro bioassay
Procedure: Evidence of the efficacy of the virucides of the invention in vitro has been obtained from bioassay using HSV-2, using a standard assay procedure. Serial dilutions of the compounds were tested for their ability to prevent plaque formation by a stock virus suspension. Reduction of plaque titer by test compounds as compared to mock treated controls was indicative of virucidal activity. […] These represent the upper limit for the drug concentration, since dilutions were not carried beyond 1:6400 and in some cases 1:12800.
Cell Culture. Cell cultures used for the propagation and titration of HSV-2 were the human diploid lung embryonic line MRC-5 and the human malignant epitheloid cell line HEP-2 respectively. Stock monolayer cultures of both cell lines were propagated in Dulbecco's Modified Eagle's medium (DME) supplemented with 10% (V/V) calf serum. Spinner cultures for mass production of HEP-2 cells were grown in Joklik's medium supplemented with 10% (V/V) calf serum and 1% (W/V) pluronic acid. Monolayer cultures of HEP-2 cells for plaque or virucidal assay were seeded into 60 mm dishes in DME supplemented with 10% calf serum and antibiotics. Stock cultures were maintained in antibiotic free medium.
Herpes simplex virus, type 2 (HSV-2) strain 333 was obtained from Dr. John Hughes of the Dept. of Medical Microbiology, College of Medicine, The Ohio State University. Stocks of HSV-2 were prepared in the human diploid embryonic lung cell line, MRC-5. Confluent MRC-5 monolayer cultures in T-75 plastic flasks were washed one time with Hank's and Balanced Salt solution (HBSS) and infected with 0.5 ml of HSV-2, strain 333 stock. Virus was adsorbed for 1 hour at 37° C. Then the culture was refed with 15 ml of DME supplemented with 1% (V/V) calf serum. Virus was harvested 48 hours later when cytopathology was complete. Cultures were frozen and thawed rapidly three times to release cell associated virus, clarified by centrifugation at 10,000×g for 15 minutes at 4° C., aliquoted into 5 ml lots and frozen at -70° C. One lot was taken for virus titration.
HSV-2 was titrated by plaque assay in HEP-2 cells under a semi-solid methyl cellulose overlay. Tenfold serial dilutions of virus were prepared in HBSS and 0.3 ml aliquots of each dilution inoculated onto triplicate HEP-2 cell monolayers in 60 mm plastic petri dishes. Adsorption of virus was for 1 hour at 37° C. Plates were then overlayed with 5 ml of a 1:1 mixture of 2×DME supplemented with 2% (V/V) calf serum and 3% (W/V) methyl cellulose to give a final 1×DME supplemented with 1% calf serum and 1.5% methylcellulose. Infected plates were incubated at 37° C. in a humidified 10% CO2 atmosphere for 48 hours. Virus plaques were visualized by staining with crystal violet and counted under a dissecting microscope. Virus titers were calculated from the plaque numbers by averaging the plaque count and multiplying by 3.3 (0.3 ml plates).
The following procedure was employed to assay virucidal activity in various test samples. Compounds were received as a solution in DMSO and were serially diluted in HBSS as described for each experiment. For the test, 1 ml of each dilution was mixed with 1 ml of a stock virus suspension diluted to approximately 9×10^3 plaque forming units (P.F.U.)/ml. This test mixture was incubated at 25° C. for 30 minutes, then inoculated onto a cell culture (HEP-2) for plaque assay as described previously. Mock treated (virus plus HBSS) controls were included with each test. Any reduction of plaque titer by test compounds as compared to the mock treated control was indicative of virucidal activity.
Samples from RP-HPLC fractionation of the CLOH, produced according to Example 2, as well as purified samples of palmitic, myristic and oleic acids and Vitamin D2, were tested for HSV-2 bioactivity. […] Pure oleic acid was not active in this assay, nor were palmitic and myristic acids and Vitamin D2. […]

[1] = Table 3, dilution 1:10, control titer 4.5 × 10^3
[2] = Table 3, dilution 1:400, TNTC = too numerous to count
[3] = Table 3, dilution 1:800, TNTC = too numerous to count
[4] = Table 3, dilution 1:1600, TNTC = too numerous to count
[5] = Table 3, dilution 1:3200, TNTC = too numerous to count
[6] = Table 3, dilution 1:6400, TNTC = too numerous to count
[7] = Table 3, dilution 1:12800, TNTC = too numerous to count
[8] = Table 1, dilution 1:10, TNTC = too numerous to count
[9] = Table 1, dilution 1:100, TNTC = too numerous to count
[10] = Table 1, dilution 1:200, TNTC = too numerous to count
[11] = Table 1, dilution 1:400, TNTC = too numerous to count
[12] = Table 1, dilution 1:800, TNTC = too numerous to count
[13] = Table 1, dilution 1:1600, TNTC = too numerous to count
[14] = Table 1, dilution 1:3200, TNTC = too numerous to count
[15] = Table 1, dilution 1:6400, TNTC = too numerous to count

Row | Compound | plaque count (Table 3, dilution 1:10) | titer [1] | plaque count (Table 3, dilution 1:100) | titer (Table 3, dilution 1:100) | titer (Table 3, dilution 1:400) | plaque count [2] | titer (Table 3, dilution 1:800) | plaque count [3] | titer (Table 3, dilution 1:1600) | plaque count [4] | titer (Table 3, dilution 1:3200) | plaque count [5] | titer (Table 3, dilution 1:6400) | plaque count [6] | titer (Table 3, dilution 1:12800) | plaque count [7] | plaque count [8] | plaque count [9] | plaque count [10] | plaque count [11] | also measured
1 | CCC=CCC=CCC=CCC=CCC=CCCCC(=O)OC [EPA--ME, eicosapentaenoic acid, methyl ester] | 0 | 0 | 2.5 | 8.3 × 10^0 | 2.5 × 10^1 | 7.5 | 4.5 × 10^1 | 13.5 | 6.4 × 10^1 | 19.5 | 1.4 × 10^2 | 42.5 | 1.2 × 10^2 | 36.5 | 2.2 × 10^2 | 66 |  |  |  |  | MIC: 540 µg/mL (≈ 1710 µM)
2 | C=C1CC[C@H](O)C/C1=C/C=C1\CCC[C@]2(C)[C@@H]([C@H](C)/C=C/[C@H](C)C(C)C)CC[C@@H]12 [Vitamin D2, reference compound] |  |  |  |  |  |  |  |  |  |  |  |  |  |  |  |  | TNTC | TNTC | TNTC | TNTC | plaque count [12]: TNTC; plaque count [13]: TNTC; plaque count [14]: TNTC; plaque count [15]: TNTC; virucidal activity against HSV-2 in words: not active
3 | CC/C=C\C/C=C\C/C=C\C/C=C\C/C=C\CCCC(=O)O [EPA, eicosapentaenoic acid] | 0 | 0 | 0.5 | 1.7 × 10^0 | 1.7 × 10^0 | 0.5 | 1.7 × 10^0 | 0.5 | 1.7 × 10^0 | 0.5 | 1.7 × 10^0 | 0.5 | 1.7 × 10^0 | 0.5 | 1.7 × 10^0 | 0.5 |  |  |  |  | MIC: 0.37 µg/mL (≈ 1.22 µM)
4 | CCCCCCCCCCCCCCCC(=O)O [Palmitic acid, reference compound] |  |  |  |  |  |  |  |  |  |  |  |  |  |  |  |  | TNTC | TNTC | TNTC | TNTC | plaque count [12]: TNTC; plaque count [13]: TNTC; plaque count [14]: TNTC; plaque count [15]: TNTC; virucidal activity against HSV-2 in words: not active
5 | CCCCCCCCCCCCCC(=O)O [Myristic acid, reference compound] |  |  |  |  |  |  |  |  |  |  |  |  |  |  |  |  | TNTC | TNTC | TNTC | TNTC | plaque count [12]: TNTC; plaque count [13]: TNTC; plaque count [14]: TNTC; plaque count [15]: TNTC; virucidal activity against HSV-2 in words: not active
6 | CCC=CCC=CCC=CCC=CCC=CCC=CCCC(=O)OC [DHA--ME, docasahexaenoic acid, methyl ester] | 95 | 3.1 × 10^2 | 293 | 9.7 × 10^2 | TNTC | TNTC | TNTC | TNTC | TNTC | TNTC | TNTC | TNTC | TNTC | TNTC | TNTC | TNTC |  |  |  |  | 

— patent US4513008A, “Virucidal compositions and therapy” (The Vinoxen Company, Inc., priority 1982, dated 1985)
